Source: ChEMBL document CHEMBL3286253, “Design, synthesis, and structure-activity relationship studies of novel thioether pleuromutilin derivatives as potent antibacterial agents” (J Med Chem, 2014)
In brackets after ≈: the same amount, converted by molar mass.

How the values were obtained:
Assay type in all cases: functional
Staphylococcus aureus [1] = assay: Antibacterial activity against methicillin-sensitive Staphylococcus aureus after 16 hrs by agar dilution method
Streptococcus pneumoniae = assay: Antibacterial activity against penicillin-resistant Streptococcus pneumoniae after 16 hrs by agar dilution method
[2] = test system: Staphylococcus epidermidis; assay: Antibacterial activity against methicillin-sensitive Staphylococcus epidermidis after 16 hrs by agar dilution method
[3] = test system: Staphylococcus epidermidis; assay: Antibacterial activity against methicillin-resistant Staphylococcus epidermidis after 16 hrs by agar dilution method
Staphylococcus aureus [4] = assay: Antibacterial activity against methicillin-resistant Staphylococcus aureus after 16 hrs by agar dilution method
Staphylococcus aureus [5] = assay: Antibacterial activity against Staphylococcus aureus […] after 16 hrs by agar dilution method

| SMILES | MIC (Staphylococcus aureus [1]) | MIC (Streptococcus pneumoniae) | MIC [2] | MIC [3] | MIC (Staphylococcus aureus [4]) | MIC (Staphylococcus aureus [5]) |
| --- | --- | --- | --- | --- | --- | --- |
| C=C[C@]1(C)C[C@@H](OC(=O)CSc2cncc(/C=N/OCC)c2)[C@]2(C)[C@H](C)CC[C@]3(CCC(=O)[C@H]32)[C@@H](C)[C@@H]1O | 1 µg/mL (≈ 1.84 µM) | 1 µg/mL (≈ 1.84 µM) | 1 µg/mL (≈ 1.84 µM) | 1 µg/mL (≈ 1.84 µM) | 1 µg/mL (≈ 1.84 µM) | 1 µg/mL (≈ 1.84 µM) |
| C=C[C@]1(C)C[C@@H](OC(=O)CSc2ccncc2N)[C@]2(C)[C@H](C)CC[C@]3(CCC(=O)[C@H]32)[C@@H](C)[C@@H]1O | 0.063 µg/mL (≈ 0.129 µM) | 0.125 µg/mL (≈ 0.257 µM) | 0.063 µg/mL (≈ 0.129 µM) | 0.063 µg/mL (≈ 0.129 µM) | 0.063 µg/mL (≈ 0.129 µM) | 0.125 µg/mL (≈ 0.257 µM) |
| C=C[C@]1(C)C[C@@H](OC(=O)CSc2cncc(/C=N/N)c2)[C@]2(C)[C@H](C)CC[C@]3(CCC(=O)[C@H]32)[C@@H](C)[C@@H]1O | 0.25 µg/mL (≈ 0.487 µM) | 0.25 µg/mL (≈ 0.487 µM) | 0.25 µg/mL (≈ 0.487 µM) | 0.25 µg/mL (≈ 0.487 µM) | 0.25 µg/mL (≈ 0.487 µM) | 0.25 µg/mL (≈ 0.487 µM) |
| C=C[C@]1(C)C[C@@H](OC(=O)CSc2cncc(C(=O)OC)c2)[C@]2(C)[C@H](C)CC[C@]3(CCC(=O)[C@H]32)[C@@H](C)[C@@H]1O | 1 µg/mL (≈ 1.89 µM) | 0.25 µg/mL (≈ 0.472 µM) | 1 µg/mL (≈ 1.89 µM) | 0.25 µg/mL (≈ 0.472 µM) | 0.125 µg/mL (≈ 0.236 µM) | 1 µg/mL (≈ 1.89 µM) |
| C=C[C@]1(C)C[C@@H](OC(=O)CSc2cncc(O)c2)[C@]2(C)[C@H](C)CC[C@]3(CCC(=O)[C@H]32)[C@@H](C)[C@@H]1O | 0.063 µg/mL (≈ 0.129 µM) | 0.063 µg/mL (≈ 0.129 µM) | 0.063 µg/mL (≈ 0.129 µM) | 0.063 µg/mL (≈ 0.129 µM) | 0.063 µg/mL (≈ 0.129 µM) | 0.125 µg/mL (≈ 0.256 µM) |
| C=C[C@]1(C)C[C@@H](OC(=O)CSc2cncc(NC(=O)CN3CCC[C@H]3CO)c2)[C@]2(C)[C@H](C)CC[C@]3(CCC(=O)[C@H]32)[C@@H](C)[C@@H]1O | 0.125 µg/mL (≈ 0.199 µM) | 0.125 µg/mL (≈ 0.199 µM) | 0.125 µg/mL (≈ 0.199 µM) | 0.125 µg/mL (≈ 0.199 µM) | 0.125 µg/mL (≈ 0.199 µM) | 0.063 µg/mL (≈ 0.1 µM) |
| C=C[C@]1(C)C[C@@H](OC(=O)CSc2cccnn2)[C@]2(C)[C@H](C)CC[C@]3(CCC(=O)[C@H]32)[C@@H](C)[C@@H]1O | 0.125 µg/mL (≈ 0.264 µM) | 0.125 µg/mL (≈ 0.264 µM) | 0.063 µg/mL (≈ 0.133 µM) | 0.063 µg/mL (≈ 0.133 µM) | 0.25 µg/mL (≈ 0.529 µM) | 0.25 µg/mL (≈ 0.529 µM) |
| C=C[C@]1(C)C[C@@H](OC(=O)CSc2cc(C#N)ccn2)[C@]2(C)[C@H](C)CC[C@]3(CCC(=O)[C@H]32)[C@@H](C)[C@@H]1O | 0.063 µg/mL (≈ 0.127 µM) | 0.063 µg/mL (≈ 0.127 µM) | 0.063 µg/mL (≈ 0.127 µM) | 0.063 µg/mL (≈ 0.127 µM) | 0.063 µg/mL (≈ 0.127 µM) | 0.125 µg/mL (≈ 0.252 µM) |
| C=C[C@]1(C)C[C@@H](OC(=O)CSc2cncc(NC(=O)[C@@H](N)[C@@H](C)CC)c2)[C@]2(C)[C@H](C)CC[C@]3(CCC(=O)[C@H]32)[C@@H](C)[C@@H]1O | 0.25 µg/mL (≈ 0.417 µM) | 0.25 µg/mL (≈ 0.417 µM) | 0.25 µg/mL (≈ 0.417 µM) | 0.25 µg/mL (≈ 0.417 µM) | 0.25 µg/mL (≈ 0.417 µM) | 0.25 µg/mL (≈ 0.417 µM) |
| C=C[C@]1(C)C[C@@H](OC(=O)CSc2cncc(NC(=O)[C@@H]3CCCN3)c2)[C@]2(C)[C@H](C)CC[C@]3(CCC(=O)[C@H]32)[C@@H](C)[C@@H]1O | 0.031 µg/mL (≈ 0.0531 µM) | 0.031 µg/mL (≈ 0.0531 µM) | 0.063 µg/mL (≈ 0.108 µM) | 0.125 µg/mL (≈ 0.214 µM) | 0.125 µg/mL (≈ 0.214 µM) | 0.125 µg/mL (≈ 0.214 µM) |
| C=C[C@]1(C)C[C@@H](OC(=O)CSc2cccs2)[C@]2(C)[C@H](C)CC[C@]3(CCC(=O)[C@H]32)[C@@H](C)[C@@H]1O | 0.5 µg/mL (≈ 1.05 µM) | 0.125 µg/mL (≈ 0.262 µM) | 0.25 µg/mL (≈ 0.524 µM) | 0.25 µg/mL (≈ 0.524 µM) | 0.5 µg/mL (≈ 1.05 µM) | 0.5 µg/mL (≈ 1.05 µM) |
| C=C[C@]1(C)C[C@@H](OC(=O)CSc2cncc(F)c2)[C@]2(C)[C@H](C)CC[C@]3(CCC(=O)[C@H]32)[C@@H](C)[C@@H]1O | 0.25 µg/mL (≈ 0.511 µM) | 0.25 µg/mL (≈ 0.511 µM) | 0.125 µg/mL (≈ 0.255 µM) | 0.25 µg/mL (≈ 0.511 µM) | 0.25 µg/mL (≈ 0.511 µM) | 0.5 µg/mL (≈ 1.02 µM) |
| C=C[C@]1(C)C[C@@H](OC(=O)CSc2nccs2)[C@]2(C)[C@H](C)CC[C@]3(CCC(=O)[C@H]32)[C@@H](C)[C@@H]1O | 0.5 µg/mL (≈ 1.05 µM) | 0.5 µg/mL (≈ 1.05 µM) | 0.25 µg/mL (≈ 0.523 µM) | 0.25 µg/mL (≈ 0.523 µM) | 0.5 µg/mL (≈ 1.05 µM) | 0.5 µg/mL (≈ 1.05 µM) |
| C=C[C@]1(C)C[C@@H](OC(=O)CSc2cncc(NC(=O)[C@H](C)N)c2)[C@]2(C)[C@H](C)CC[C@]3(CCC(=O)[C@H]32)[C@@H](C)[C@@H]1O | 0.125 µg/mL (≈ 0.224 µM) | 0.125 µg/mL (≈ 0.224 µM) | 0.125 µg/mL (≈ 0.224 µM) | 0.125 µg/mL (≈ 0.224 µM) | 0.125 µg/mL (≈ 0.224 µM) | 0.125 µg/mL (≈ 0.224 µM) |
| C=C[C@]1(C)C[C@@H](OC(=O)CSc2ccnc(CO)c2)[C@]2(C)[C@H](C)CC[C@]3(CCC(=O)[C@H]32)[C@@H](C)[C@@H]1O | 0.063 µg/mL (≈ 0.126 µM) | 0.063 µg/mL (≈ 0.126 µM) | 0.031 µg/mL (≈ 0.0618 µM) | 0.031 µg/mL (≈ 0.0618 µM) | 0.031 µg/mL (≈ 0.0618 µM) | 0.063 µg/mL (≈ 0.126 µM) |
| C=C[C@]1(C)C[C@@H](OC(=O)CSc2cccnc2)[C@]2(C)[C@H](C)CC[C@]3(CCC(=O)[C@H]32)[C@@H](C)[C@@H]1O | 0.125 µg/mL (≈ 0.265 µM) | 0.125 µg/mL (≈ 0.265 µM) | 0.125 µg/mL (≈ 0.265 µM) | 0.25 µg/mL (≈ 0.53 µM) | 0.125 µg/mL (≈ 0.265 µM) | 0.25 µg/mL (≈ 0.53 µM) |
